{"source": "patent US12465618B2", "about": "“Compositions and methods for degenerative disc regeneration” (University Health Network, priority 2015, dated 2025)", "assay_type_in_all_cases": "cell-based", "key": {"[1]": {"test_system": "human degenerative disc NP cells", "experiment": "Western blotting of human degenerative disc NP cells", "settings": "IL-1β and TNFα, Western blots, FIG. 2h", "description": "(§1) After euthanasia, healthy rat lumbar/caudal spine IVDs, injured tail discs and bovine caudal IVD NPs were removed aseptically and the nucleus pulposus (NP) was removed separately and enzymatically digested according to methods established by the present inventors^16. Similarly, human degenerative disc NPs were enzymatically digested using Pronase (0.4%, 1 hr at 37° C.) followed by Collagenase II treatment (0.015%, O/N, 37° C.). The following day, the cells were filtered with a 70p cell strainer and cultured within a hypoxic incubator (NuAire, MN, USA) in 3.5% O2, 5% CO2, in Advanced Dulbecco's modified Eagle's medium (ADMEM) supplemented with 8% fetal bovine serum (FBS) and penicillin and streptomycin (100 U/mL). For treatments, the cells were either cultured in serum free ADMEM (no treatment controls) or treated with interleukin-1β (IL-1β, 10 ng/mL), tumor necrosis factor-alpha (TNFα, 50 ng/mL), connective tissue growth factor (CTGF, 10-100 ng/mL), Wnt-inducible soluble protein 2 (WISP2, 10-100 ng/mL) or transforming growth factor beta 1 (TGFβ1, 5-20 ng/mL) for various time points under hypoxic conditions.\n(§2) Equal amounts of whole cell or tissue lysates prepared using RIPA lysis buffer were subjected to Western blotting as described earlier^18,19. Total lysates (30 μg) were resolved on 10% sodium dodecyl sulphate-polyacrylamide gels (SDS-PAGE) under reducing conditions and then proteins were electro-transferred onto polyvinyledendifluoride (PVDF) membranes (BioRad, CA). After blocking with 5% non-fat powdered milk in Tris-buffered saline (TBS, 0.1 M, pH=7.4), blots were incubated with rabbit or goat polyclonal/mouse monoclonal primary antibodies at 4° C. overnight. […] Blots were washed three times with TTBS for 15 minutes and protein bands were detected by the enhanced chemiluminescence method (BioRad, CA) on Kodak Hyperfilm."}, "rat NP cells [2]": {"test_system": "rat NP cells", "experiment": "Western blotting of rat NP cells treated with IL-1β/TNFα with or without inhibitors or growth factors", "description": "as §1, §2"}, "rat NP cells [3]": {"test_system": "rat NP cells", "experiment": "ECM and cell adhesion molecule gene array, real time quantitative PCR", "settings": "24 hrs, vs no treatment control", "description": "To determine the effect of IL-1β and TNFα on ECM turnover, rat NP cells were treated with IL-1β alone or in combination with TNFα for 24 hrs and real time quantitative PCR was performed using the ECM and cell adhesion molecule gene arrays (includes 84 genes).\nas §1\nTotal RNA from healthy and treated (IL-1β alone or in combination with TNFα) rat NP cells, were isolated using RNAeasy extraction kit (Cat #74134, Qiagen) and quantified using a Nanodrop spectrophotometer. Total RNA (˜400 ng) was reverse-transcribed using RT^2 First Strand Kit (Cat #330401, Qiagen) following the manufacturer's instructions for preparing cDNA. To evaluate the effect of IL-1β alone or in combination with TNFα on extra-cellular matrix (ECM) genes in rat NP cells, the RT^2 Profiler™ PCR Array Rat Extracellular Matrix & Adhesion Molecules (PARN-013Z, Qiagen) was used and compared with no treatment controls (NTC) in 3 independent experiments using real time PCR performed on ABI 7900HT 384-well Fast block machine. Data analysis including calculation of ΔΔCt values, fold changes and p-values was carried out using software available online (https://www.qiagen.com/ca). Total RNA was isolated from human degenerative disc NP cells (H1/H2) treated with CTGF, TGFβ1, CTGF+TGFβ1 to evaluate their effect on collagen 2, HAPLN1, versican and thrombospondin 1 using gene specific primers. Similarly, RNA was isolated from human NP cells were treated with […] alone or in combination TNFα in presence of CTGF and TGFβ1 to determine their effect on Cox2 and MMP-13 expression using qRT-PCR."}, "[4]": {"settings": "rat NP cells treated with IL-1β and TNFα, Western blot, FIG. 2f-2g"}}, "note": "Where two headings read alike, the source gives them in different places."}
{"compound": "C[S+]([O-])c1ccc(-c2nc(-c3ccncc3)c(-c3ccc(F)cc3)[nH]2)cc1", "note": "(stereo not shown) [SB203580]", "values": [{"measurement": "cytokine induced Cox2 expression in presence of inhibitor", "setting": "[1]", "result": "decreased expression"}, {"measurement": "MMP-3, MMP-13 and Cox2 expression in presence of inhibitor", "setting": "rat NP cells [2]; IL-1β treated rat NP cells, Western blot, FIG. 2f", "result": "reduced expression"}]}
{"compound": "COC[C@H]1OC(=O)c2coc3c2[C@@]1(C)C1=C(C3=O)[C@@H]2CCC(=O)[C@@]2(C)C[C@H]1OC(C)=O", "note": "[Wortamanin]", "values": [{"measurement": "IL-1β and TNFα induced MMP-3, MMP-13 and Cox2 expression in presence of inhibitor", "setting": "rat NP cells [2]; [4]", "result": "reduced expression of MMP-3 and MMP-13 only"}]}
{"compound": "N#CC(=C(/N)Sc1ccccc1N)/C(C#N)=C(\\N)Sc1ccccc1N", "note": "[U0126]", "values": [{"measurement": "IL-1β and TNFα induced MMP-3, MMP-13 and Cox2 expression in presence of inhibitor", "setting": "rat NP cells [2]", "result": "failed to induce"}]}
{"compound": "IL1β: Human recombinant pro-inflammatory cytokine interleukin-1 beta, purchased from Peprotech, used at 10 ng/mL", "values": [{"measurement": "Fold regulation (IL1β vs NTC), gene Adamts8", "setting": "rat NP cells [3]", "result": 139.39}, {"measurement": "Fold regulation (IL1β vs NTC), gene Cd44", "setting": "rat NP cells [3]", "result": 23.57}, {"measurement": "Fold regulation (IL1β vs NTC), gene Cdh3", "setting": "rat NP cells [3]", "result": "−6.18"}, {"measurement": "Fold regulation (IL1β vs NTC), gene Col3a1", "setting": "rat NP cells [3]", "result": "−3.80"}, {"measurement": "Fold regulation (IL1β vs NTC), gene Col4a1", "setting": "rat NP cells [3]", "result": 4.24}, {"measurement": "Fold regulation (IL1β vs NTC), gene Col4a2", "setting": "rat NP cells [3]", "result": 3.20}, {"measurement": "Fold regulation (IL1β vs NTC), gene Ctgf", "setting": "rat NP cells [3]", "result": "−2.40"}, {"measurement": "Fold regulation (IL1β vs NTC), gene Emilin1", "setting": "rat NP cells [3]", "result": 4.42}, {"measurement": "Fold regulation (IL1β vs NTC), gene Hapln1", "setting": "rat NP cells [3]", "result": "−6.01"}, {"measurement": "Fold regulation (IL1β vs NTC), gene Icam1", "setting": "rat NP cells [3]", "result": 6.56}, {"measurement": "Fold regulation (IL1β vs NTC), gene Itga3", "setting": "rat NP cells [3]", "result": 9.22}, {"measurement": "Fold regulation (IL1β vs NTC), gene Itga5", "setting": "rat NP cells [3]", "result": 6.23}, {"measurement": "Fold regulation (IL1β vs NTC), gene Itgav", "setting": "rat NP cells [3]", "result": 2.14}, {"measurement": "Fold regulation (IL1β vs NTC), gene Lamc1", "setting": "rat NP cells [3]", "result": 4.24}, {"measurement": "Fold regulation (IL1β vs NTC), gene MMP3", "setting": "rat NP cells [3]", "result": 68.04}, {"measurement": "Fold regulation (IL1β vs NTC), gene MMP9", "setting": "rat NP cells [3]", "result": 1252.77}, {"measurement": "Fold regulation (IL1β vs NTC), gene MMP13", "setting": "rat NP cells [3]", "result": 36.82}, {"measurement": "Fold regulation (IL1β vs NTC), gene Mmp11", "setting": "rat NP cells [3]", "result": "−3.86"}, {"measurement": "Fold regulation (IL1β vs NTC), gene Ncam1", "setting": "rat NP cells [3]", "result": "−2.00"}, {"measurement": "Fold regulation (IL1β vs NTC), gene Thbs1", "setting": "rat NP cells [3]", "result": "−3.35"}, {"measurement": "Fold regulation (IL1β vs NTC), gene Thbs2", "setting": "rat NP cells [3]", "result": "−4.14"}, {"measurement": "Fold regulation (IL1β vs NTC), gene Timp1", "setting": "rat NP cells [3]", "result": 5.04}, {"measurement": "phosphorylation levels of c-Raf (S259), p42/44 (Thr202/Tyr204) and p38MAPK (Thr180/Tyr182)", "setting": "rat NP cells [2]; rat NP cells, 5-60 minutes, no significant change in total protein", "result": "increased phosphorylation levels"}]}
{"compound": "C[C@H](NC(=O)/C(C#N)=C/c1cccc(Br)n1)c1ccccc1", "note": "[STAT3 inhibitor]", "values": [{"measurement": "cytokine induced Cox2 expression in presence of inhibitor", "setting": "[1]", "result": "decreased expression"}, {"measurement": "IL-1β and TNFα induced MMP-3, MMP-13 and Cox2 expression in presence of inhibitor", "setting": "rat NP cells [2]; [4]", "result": "Reduced expression"}]}
{"compound": "Cc1ccc(S(=O)(=O)/C=C/C#N)cc1", "note": "[BAY-11-7082]", "values": [{"measurement": "cytokine induced Cox2 expression in presence of inhibitor", "setting": "[1]", "result": "decreased expression"}, {"measurement": "IL-1β and TNFα induced MMP-3, MMP-13 and Cox2 expression in presence of inhibitor", "setting": "rat NP cells [2]; [4]", "result": "Reduced expression"}]}
